# According to patent publication US11905281B2 (Amgen Inc., priority 2017, dated 2024):
# Assays:
# [1] = biological target: GDP-bound KRAS protein (aa 1-169), containing both G12C and C118A amino acid substitutions (Homo sapiens, UniProt P01116, C118A/G12C); experiment: Coupled Nucleotide Exchange Assay (Table 16 conditions: 5 min pre-incubation); type: biochemical; settings: 5 min compound pre-incubation; SOS-mediated nucleotide exchange, AlphaScreen
# Description: (§1) For compounds in Table 16, the following assay conditions were employed:
# The assay plates were then read on a PerkinElmer EnVision Multilabel Reader, using AlphaScreen® technology, and data were analyzed using a 4-parameter logistic model to calculate IC50 values.
# [2] = tested on: Phosphorylation of ERK1/2 in MIA PaCa-2 cells; experiment: Phospho-ERK1/2 MSD Assay, MIA PaCa-2 (Table 16 conditions: 2 hours compound treatment); type: cell-based; settings: MIA PaCa-2 cells, 10 ng/mL EGF for 10 min, read-out: p-ERK IC50 (MIA PaCa-2)
# Description: as §1
# Sixteen hours prior to compound treatment, MIA PaCa-2 or A549 cells were seeded in 96-well cell culture plates at a density of 25,000 cells/well and incubated at 37° C., 5% CO2. A compound dose-response titration was diluted in growth media, added to appropriate wells of a cell culture plate, and then incubated at 37° C., 5% CO2 for 2 hours. […] Phosphorylation of ERK1/2 in compound-treated lysates was assayed using Phospho-ERK1/2 Whole Cell Lysate kits (Meso Scale Discovery K151DWD) according to the manufacturer's protocol. Assay plates were read on a Meso Scale Discovery Sector Imager 6000, and data were analyzed using a 4-parameter logistic model to calculate IC50 values.
# Sequence of GDP-bound KRAS protein (aa 1-169), containing both G12C and C118A amino acid substitutions (P01116 1-169 isoform P01116-2 G12C/C118A): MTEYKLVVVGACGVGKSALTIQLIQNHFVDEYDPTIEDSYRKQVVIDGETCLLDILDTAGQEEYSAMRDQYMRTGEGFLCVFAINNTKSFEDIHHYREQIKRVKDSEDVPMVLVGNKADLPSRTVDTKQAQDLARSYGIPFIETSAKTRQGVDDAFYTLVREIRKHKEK
SMILES,IC50 [1] [nM],IC50 [2] [nM]
"C=CC(=O)N1CCN(c2nc(=O)n(-c3c(C)ccnc3C3CC3)c3nc(-c4ccccc4F)c(Cl)cc23)[C@@H](C)C1 (single isomer, unassigned) [Example 45-1]",89,49
"C=CC(=O)N1CCN(c2nc(=O)n(-c3ccccc3C(C)(C)C)c3nc(-c4c(O)cccc4F)c(Cl)cc23)[C@@H](C)C1 (single isomer, unassigned) [Example 49-1]",2580,
"C=CC(=O)N1CCN(c2nc(=O)n(-c3ccccc3C(C)C)c3nc(-c4ccccc4F)c(Cl)nc23)[C@@H](C)C1 (single isomer, unassigned) [Example 50-1]",117,
"C=CC(=O)N1CCN(c2nc(=O)n(-c3ccccc3C(C)C)c3nc(-c4ccccc4F)c(Cl)nc23)[C@@H](C)C1 (single isomer, unassigned) [Example 50-2]",3690,
"C=CC(=O)N1CCN(c2nc(=O)n(-c3ccccc3C(C)C)c3nc(-c4ccccc4F)c(C)nc23)[C@@H](C)C1 (single isomer, unassigned) [Example 51-1]",11200,
"C=CC(=O)N1CCN(c2nc(=O)n(-c3ccccc3C(C)C)c3nc(-c4ccccc4F)c(C)nc23)[C@@H](C)C1 (single isomer, unassigned) [Example 51-2]",221,
"C=CC(=O)N1CCN(c2nc(=O)n(-c3ccccc3C(C)C)c3nc(-c4c(O)cccc4F)c(C)cc23)[C@@H](C)C1 (single isomer, unassigned) [Example 52-1]",5990,
"C=CC(=O)N1CCN(c2nc(=O)n(-c3ccccc3C(C)C)c3nc(-c4c(O)cccc4F)c(C)cc23)[C@@H](C)C1 (single isomer, unassigned) [Example 52-2]",146,
"C=CC(=O)N1CCN(c2nc(=O)n(-c3c(C)ccnc3C(C)C)c3nc(-c4c(O)cccc4F)c(F)cc23)[C@@H](C)C1 [Example 41, 6-Fluoro-7-(2-fluoro-6-hydroxyphenyl)-1-(4-methyl-2-(2-propanyl)-3-pyridinyl)-4-((2S)-2-methyl-4-(2-propenoyl)-1-piperazinyl)pyrido[2,3-d]pyrimidin-2(1H)-one]",,85
"C=CC(=O)N1CCN(c2nc(=O)n(-c3c(C)ccnc3C(C)C)c3nc(-c4c(O)cccc4F)c(F)cc23)[C@@H](C)C1 [Example 41-1, 6-fluoro-7-(2-fluoro-6-hydroxyphenyl)-1-(4-methyl-2-(2-propanyl)-3-pyridinyl)-4-((2S)-2-methyl-4-(2-propenoyl)-1-piperazinyl)pyrido-[2,3-d]pyrimidin-2(1H)-one]",,72
"C=CC(=O)N1CCN(c2nc(=O)n(-c3c(C)ccnc3C(C)C)c3nc(-c4c(O)cccc4F)c(F)cc23)[C@@H](C)C1 [Example 41-2, 6-fluoro-7-(2-fluoro-6-hydroxyphenyl)-1-(4-methyl-2-(2-propanyl)-3-pyridinyl)-4-((2S)-2-methyl-4-(2-propenoyl)-1-piperazinyl)pyrido-[2,3-d]pyrimidin-2(1H)-one]",,1660
"C=CC(=O)N1CCN(c2nc(=O)n(-c3c(C)ccnc3C3CC3)c3nc(-c4c(O)cccc4F)c(F)cc23)[C@@H](C)C1 [Example 42-2, 1-(2-cyclopropyl-4-methyl-3-pyridinyl)-6-fluoro-7-(2-fluoro-6-hydroxyphenyl)-4-((2S)-2-methyl-4-(2-propenoyl)-1-piperazinyl)pyrido-[2,3-d]pyrimidin-2(1H)-one]",1560,
"C=CC(=O)N1CCN(c2nc(=O)n(-c3ccccc3C(C)C)c3nc(-c4ccccc4F)c(Cl)nc23)[C@@H](C)C1 [Example 50, 6-Chloro-7-(2-fluorophenyl)-4-((2S)-2-methyl-4-(2-propenoyl)-1-piperazinyl)-1-(2-(2-propanyl)phenyl)-2(1H)-pteridinone]",276,
"C=CC(=O)N1CCN(c2nc(=O)n(-c3ccccc3C(C)C)c3nc(-c4c(O)cccc4F)c(C)cc23)[C@@H](C)C1 [Example 52, 7-(2-fluoro-6-hydroxyphenyl)-6-methyl-4-((2S)-2-methyl-4-(2-propenoyl)-1-piperazinyl)-1-(2-(2-propanyl)phenyl)pyrido[2,3-d]pyrimidin-2(1H)-one]",338,
